Converted amounts (≈) assume the structure as drawn.

We go through five compounds from US4730054A, “Imidazole thieno-benzothiepins” (SPOFA, Spojene Podinky Pro Zdravotnickou Vyrobu, priority 1985, dated 1988).

One data set concerns S pastorianus. As to the kind of experiment: MIC by standard dilution method in a liquid nutrient medium. Type of data set: cell-based, Saccharomuces pastorianus. Particulars: inoculum 10^4 CFU/ml, read-out: Antimycotic Activity (MIC). From the text:
(§1) For example, the new compounds were compared in vitro with the known antimycotic agents clotrimazole, miconazole and ketoconazole, in order to determine their minimum inhibitive concentrations (MICs). See, Fromtling, R. A., "Imidazoles as medically important antifungal agents: an overview," 20 Drugs of Today No. 7, 328-331 (1984); Burgess & Bodey, "Clotrimazole," 2 Antimicrobial Agents and Chemotherapy No. 6, 423-6 (1972). […] The test innoculum size was 10^6 CFU/ml for Aspergillus niger and Trichophyton mentagrophytes and 10^4 CFU/ml for Saccharomuces pastorianus and Candida albicans, where CFU is the standard abbreviation for microbial cell counts.

Another data set relates to A niger. The data set is described as above. Type of data set: cell-based. Particulars: Aspergillus niger, inoculum 10^6 CFU/ml, read-out: Antimycotic Activity (MIC).
Description: as §1

For another data set, the system named is C albicans. The data set is described as above. The conditions noted are these: Candida albicans, inoculum 10^4 CFU/ml, read-out: Antimycotic Activity (MIC). Type of data set: cell-based.
Description: as §1

The next data set relates to T mentagrophytes. The description is as above. Particulars: Trichophyton mentagrophytes, inoculum 10^6 CFU/ml, read-out: Antimycotic Activity (MIC). Type of data set: cell-based.
Description: as §1

For data set [1], the system named is clinical strain isolates of pathogenic molds (a total of 16). As to the kind of experiment: Sensitivity of clinical mold strain isolates, dilution method on Sabouraud agar. It is filed as cell-based. Particulars: 16 clinical mold strains. How it is done: (§2) The sensitivity of a larger number of clinical strain isolates of pathogenic molds (a total of 16) as well as yeasts and related microorganisms (a total of 21) when exposed to the inventive compounds was determined using the dilution method on Sabouraud agar. Thus, the experimental MIC values for mold strains exposed to Compound Ia were from 0.7 to 100 mg/l.

For data set [2], the system named is pathogenic molds as well as yeasts and related microorganisms. As to the kind of experiment: Effect of addition of serum or blood to the agar test plate on antimycotic effect, Sabouraud agar. Type of data set: cell-based. Particulars: for effect of addition of serum or blood to the agar test plate: in comparison to the protein-free agar culture values; for potency in the presence of biological protein substances: such as blood constituents. The method, then: as §2

Another data set relates to Candida albicans. As to the kind of experiment: Vaginal candidosis induced experimentally in mice, intravaginal administration. Type of data set: in vivo, Candida albicans (in mice). The conditions noted are these: for inhibition of the test culture: ten days. How it is done:
The in vivo evaluation of antimycotic activity was performed using a model of vaginal candidosis induced experimentally in mice by Candida albicans. The test substances were administered intravaginally over a period of ten days in the form of homogenized suspensions of appropriately chosen concentrations in a 0.5% aqueous hydroxyethylcellulose solution. The results were evaluated both immediately upon administration and after one and two weeks.

Data set [3] concerns about forty pathogenic yeast and mold strains. As to the kind of experiment: MIC in dilution tests on Sabouraud agar, about forty pathogenic yeast and mold strains. Type of data set: cell-based. How it is done: The sensitivity of a larger number of clinical strain isolates of pathogenic molds (a total of 16) as well as yeasts and related microorganisms (a total of 21) when exposed to the inventive compounds was determined using the dilution method on Sabouraud agar.

Data set [4] relates to typical inducers of dermal mycoses. As to the kind of experiment: Antimycotic activity against typical inducers of dermal mycoses compared with clotrimazole and miconazole. Type of data set: cell-based. How it is done: (§3) For example, the new compounds were compared in vitro with the known antimycotic agents clotrimazole, miconazole and ketoconazole, in order to determine their minimum inhibitive concentrations (MICs). See, Fromtling, R. A., "Imidazoles as medically important antifungal agents: an overview," 20 Drugs of Today No. 7, 328-331 (1984); Burgess & Bodey, "Clotrimazole," 2 Antimicrobial Agents and Chemotherapy No. 6, 423-6 (1972). MIC values were determined by the standard dilution method in a liquid nutrient medium, primarily with the following yeast and mold species typically used in preliminary antimycotic screening: Saccharomuces pastorianus, Candida albicans, Trichophyton mentagrophytes, and Aspergillus niger. The test innoculum size was 10^6 CFU/ml for Aspergillus niger and Trichophyton mentagrophytes and 10^4 CFU/ml for Saccharomuces pastorianus and Candida albicans, where CFU is the standard abbreviation for microbial cell counts.

The test system of another data set is Aspergillus strains. As to the kind of experiment: Antimycotic activity against Aspergillus strains compared with clotrimazole and miconazole. It is filed as cell-based. How it is done:
as §3

Data set [5] is described as follows: Standard test for mutagenity. The conditions noted are these: standard tests.
Data set [6] in a line: Standard test for cancerogenity. The conditions noted are these: standard tests.
The nature of data set [7]: Standard test for teratogenity. The conditions noted are these: standard tests.
Data set [8] is described as follows: Standard test for foetal damage. Particulars: standard tests.
A short description of data set [9]: Standard test for dermal irritation. Type of data set: in vivo. The conditions noted are these: standard tests.
Data set [10] in a line: Standard test for vaginal irritation. Type of data set: in vivo. The conditions noted are these: standard tests.
Data set [11] can be described thus: Chronic (one month) toxicity on intravaginal administration, rat. It is filed as in vivo.
Data set [12] is described as follows: Chronic (one month) toxicity on intravaginal administration, dog. It is filed as in vivo.
Data set [13] is described as follows: Acute toxicity LD50 in rats p.o. Particulars: for LD50: rat, in vivo, po.

`Clc1ccccc1C(c1ccccc1)(c1ccccc1)n1ccnc1` [Clotrimazole]: the MIC with S pastorianus was 3.1 µg/mL (≈ 8.99 µM); in the data set on A niger, 3.1 µg/mL (≈ 8.99 µM); with C albicans, 0.7 µg/mL (≈ 2.03 µM); with T mentagrophytes, 0.03 µg/mL (≈ 0.087 µM); in data set [1], 0.01 to 1.5 µg/mL (≈ 0.029 to 4.35 µM). The “effect of addition of serum or blood to the agar test plate” value (“effect of addition of serum or blood” for short) in [2] was “diminished the effect of clotrimazole about one third”.

With `c1ccc2c(c1)CSc1sccc1C2n1ccnc1` (centres unmarked) [Compound Ia, 4-(1-imidazolyl)-4,9-dihydrothieno(2,3-c)-2-benzothiepin], the minimal inhibitory concentration (MIC) with S pastorianus was 25 µg/mL (≈ 87.9 µM); in the data set with A niger, 0.7 µg/mL (≈ 2.46 µM); in the data set with C albicans, 25 µg/mL (≈ 87.9 µM); with T mentagrophytes, 1.5 µg/mL (≈ 5.27 µM); in data set [1], 0.7 to 100 µg/mL (≈ 2.46 to 352 µM). Moreover, the “effect of addition of serum or blood” value in data set [2] is “doubled the effect”. Besides, in [2], the “potency in the presence of biological protein substances” value is reported as “actually improved”. Further, the “prophylactic (preventative) effect” value in the data set with Candida albicans (intravaginal, concentration of 7.5%) is given as “significant prophylactic (preventative) effect”. In addition, the “inhibition of the test culture” value in the data set with Candida albicans (intravaginal, concentration of 7.5%, therapy starting 24 hours prior to infection) is “complete inhibition”; in the data set with Candida albicans (intravaginal, concentration of 7.5%, therapy starting simultaneously with infection), “complete inhibition”. Further, in the data set with Candida albicans (intravaginal, therapy delayed until 24 hours after infection), the “results when therapy was delayed” value is “somewhat less favorable”.

For `Clc1ccc2c(c1)C(n1ccnc1)c1ccsc1SC2` (centres unmarked) [Compound Ib, 6-chloro-4-(1-imidazolyl)-4,9-dihydrothieno(2,3-c)-2-benzothiepin], the MIC was 12.5 µg/mL (≈ 39.2 µM) in the data set with S pastorianus; 0.03 µg/mL (≈ 0.0941 µM) in the data set with A niger; 3.1 µg/mL (≈ 9.72 µM) in the data set with C albicans; 0.03 µg/mL (≈ 0.0941 µM) with T mentagrophytes; 0.01 to 1.5 µg/mL (≈ 0.0314 to 4.7 µM) in [1]. Moreover, the “effect of addition of serum or blood” value in data set [2] was “had no effect”. The “potency in the presence of biological protein substances” value in data set [2] was “not diminished”. Also, the “therapeutic effect on vaginal Candida albicans infections” value with Candida albicans (topical application) is “beneficial therapeutic effect”. Besides, in [3], the “Minimum MIC values” lay in the range of 0.01 to 25 µg/mL. For the same compound, the “level of activity against typical inducers of dermal mycoses” value in data set [4] is “similarly potent level of activity”. For the same compound, the “activity against Aspergillus strains” value with Aspergillus strains is reported as “notably increased activity”. Moreover, the mutagenity entry in data set [5] is “negative”. Also, the cancerogenity entry in data set [6] is listed as “negative”. Also, the teratogenity entry in data set [7] is “negative”. In addition, the foetal damage result in data set [8] is listed as “negative”. The dermal irritation result in data set [9] is on record as “negative”. The vaginal irritation entry in [10] was “negative”. Besides, the “chronic (one month) toxicity” value in data set [11] and in [12] was “negative” throughout. Further, the median lethal dose (LD50) in data set [13] (LD50, female rats) came out at 1120 mg/kg; in data set [13] (LD50, male rats) it was 1570 mg/kg. The toxicity result in [13] (rats) is on record as “only slightly toxic”.

`CC(=O)N1CCN(c2ccc(OCC3COC(Cn4ccnc4)(c4ccc(Cl)cc4Cl)O3)cc2)CC1` (centres unmarked) [Ketoconazole]: the MIC came out at 50 µg/mL (≈ 94.1 µM) in the data set on S pastorianus, 12.5 µg/mL (≈ 23.5 µM) in the data set on A niger, 0.03 µg/mL (≈ 0.0565 µM) in the data set with C albicans and 0.7 µg/mL (≈ 1.32 µM) with T mentagrophytes.

For the compound `Clc1ccc(COC(Cn2ccnc2)c2ccc(Cl)cc2Cl)c(Cl)c1` (centres unmarked) [Miconazole], the minimum inhibitory concentration (MIC) amounted to 6.2 µg/mL (≈ 14.9 µM) with S pastorianus, 1.5 µg/mL (≈ 3.6 µM) in the data set with A niger, 0.7 µg/mL (≈ 1.68 µM) in the data set with C albicans and 0.03 µg/mL (≈ 0.0721 µM) in the data set with T mentagrophytes.

For orientation: MIC means the lowest concentration found to suppress growth. Usually LD50 stands for the dose at which mortality reaches 50%. Read a low LD50 as greater toxicity.
